# Test system: CV-A24
# Experiment: microbe, parasite or virus in culture
# Type: cell-based, coxsackievirus A24
# Conditions: Enterovirus C, CVA24, HeLa R19, read-out: EC50 CV-A24
row,SMILES,EC50
1,"O=C(c1ccc[nH]1)N(Cc1ccc(C(F)(F)F)cc1)c1ccccc1 [Compound 22, N-Phenyl-N-(4-(trifluoromethyl)benzyl)-1H-pyrrole-2-carboxamide]",> 30 µM

# Test system: CV-B3
# Experiment: microbe, parasite or virus in culture
# Type: cell-based, coxsackievirus B3
# Conditions: not given
SMILES,antiviral activity against CV-B3 (in words),effect of the substitution on antiviral activity against CV-B3 (in words)
"COc1ccc(N(Cc2ccco2)C(=O)c2ccc(F)cc2)cc1 [Compound 15, 4-Fluoro-N-(furan-2-ylmethyl)-N-(4-methoxyphenyl)benzamide]",abolished antiviral acitivty,–
"O=C(c1ccc[nH]1)N(Cc1ccc(C(F)(F)F)cc1)c1ccccc1 [Compound 22, N-Phenyl-N-(4-(trifluoromethyl)benzyl)-1H-pyrrole-2-carboxamide]",–,"little, if any, effect on antiviral activity"

# Same assay, conditions: Enterovirus B, CVB3, HeLa R19
row,SMILES,EC50
1,"COc1ccc(N(Cc2ccco2)C(=O)c2ccc(F)cc2)cc1 [Compound 15, 4-Fluoro-N-(furan-2-ylmethyl)-N-(4-methoxyphenyl)benzamide]",> 30 µM

# Same assay, conditions: Enterovirus B, CVB3, HeLa R19, read-out: CV-B3 EC50 Average
row,SMILES,EC50
1,"COc1ccc(N(Cc2ccco2)C(=O)c2ccc(F)cc2)cc1 [Compound 15, 4-Fluoro-N-(furan-2-ylmethyl)-N-(4-methoxyphenyl)benzamide]",> 30 µM
2,"O=C(c1ccc[nH]1)N(Cc1ccc(C(F)(F)F)cc1)c1ccccc1 [Compound 22, N-Phenyl-N-(4-(trifluoromethyl)benzyl)-1H-pyrrole-2-carboxamide]",1.5 µM

# Same assay, conditions: Enterovirus B, CVB3, HeLa R19, read-out: CV-B3 Exp 1 EC50
row,SMILES,EC50
1,"COc1ccc(N(Cc2ccco2)C(=O)c2ccc(F)cc2)cc1 [Compound 15, 4-Fluoro-N-(furan-2-ylmethyl)-N-(4-methoxyphenyl)benzamide]",> 30 µM
2,"O=C(c1ccc[nH]1)N(Cc1ccc(C(F)(F)F)cc1)c1ccccc1 [Compound 22, N-Phenyl-N-(4-(trifluoromethyl)benzyl)-1H-pyrrole-2-carboxamide]",1.42 µM

# Same assay, conditions: Enterovirus B, CVB3, HeLa R19, read-out: CV-B3 Exp2 EC50
row,SMILES,EC50
1,"COc1ccc(N(Cc2ccco2)C(=O)c2ccc(F)cc2)cc1 [Compound 15, 4-Fluoro-N-(furan-2-ylmethyl)-N-(4-methoxyphenyl)benzamide]",> 30 µM
2,"O=C(c1ccc[nH]1)N(Cc1ccc(C(F)(F)F)cc1)c1ccccc1 [Compound 22, N-Phenyl-N-(4-(trifluoromethyl)benzyl)-1H-pyrrole-2-carboxamide]",1.58 µM

# Same assay, conditions: Enterovirus B, CVB3, HeLa R19, read-out: EC50 HelaR19 Average
row,SMILES,EC50
1,"O=C(c1ccc[nH]1)N(Cc1ccc(C(F)(F)F)cc1)c1ccccc1 [Compound 22, N-Phenyl-N-(4-(trifluoromethyl)benzyl)-1H-pyrrole-2-carboxamide]",2.6 µM

# Same assay, conditions: Enterovirus B, CVB3, HeLa R19, read-out: Exp 1 EC50 HelaR19
row,SMILES,EC50
1,"O=C(c1ccc[nH]1)N(Cc1ccc(C(F)(F)F)cc1)c1ccccc1 [Compound 22, N-Phenyl-N-(4-(trifluoromethyl)benzyl)-1H-pyrrole-2-carboxamide]",2.69 µM

# Same assay, conditions: Enterovirus B, CVB3, HeLa R19, read-out: Exp 2 EC50 HelaR19
row,SMILES,EC50
1,"O=C(c1ccc[nH]1)N(Cc1ccc(C(F)(F)F)cc1)c1ccccc1 [Compound 22, N-Phenyl-N-(4-(trifluoromethyl)benzyl)-1H-pyrrole-2-carboxamide]",2.51 µM

# Test system: CV-B3
# Experiment: microbe, parasite or virus in culture
# Type: cell-based, coxsackievirus B3
# Conditions: Enterovirus B, CVB3, HAP1, read-out: EC50 Hap1 Average
row,SMILES,EC50
1,"O=C(c1ccc[nH]1)N(Cc1ccc(C(F)(F)F)cc1)c1ccccc1 [Compound 22, N-Phenyl-N-(4-(trifluoromethyl)benzyl)-1H-pyrrole-2-carboxamide]",2.69 µM

# Same assay, conditions: Enterovirus B, CVB3, HAP1, read-out: Exp 1 EC50 Hap1
row,SMILES,EC50
1,"O=C(c1ccc[nH]1)N(Cc1ccc(C(F)(F)F)cc1)c1ccccc1 [Compound 22, N-Phenyl-N-(4-(trifluoromethyl)benzyl)-1H-pyrrole-2-carboxamide]",2.5 µM

# Same assay, conditions: Enterovirus B, CVB3, HAP1, read-out: Exp 2 EC50 Hap1
row,SMILES,EC50
1,"O=C(c1ccc[nH]1)N(Cc1ccc(C(F)(F)F)cc1)c1ccccc1 [Compound 22, N-Phenyl-N-(4-(trifluoromethyl)benzyl)-1H-pyrrole-2-carboxamide]",2.87 µM

# Test system: HRV-A2
# Experiment: microbe, parasite or virus in culture
# Type: cell-based, human rhinovirus
# Conditions: Human rhinovirus sp., HRVA2, HeLa R19, read-out: EC50 HRV-A2
row,SMILES,EC50
1,"O=C(c1ccc[nH]1)N(Cc1ccc(C(F)(F)F)cc1)c1ccccc1 [Compound 22, N-Phenyl-N-(4-(trifluoromethyl)benzyl)-1H-pyrrole-2-carboxamide]",> 30 µM

# Test system: PV-1
# Experiment: microbe, parasite or virus in culture
# Type: cell-based, poliovirus 1
# Conditions: Enterovirus C, HeLa R19, read-out: EC50 PV-1
row,SMILES,EC50
1,"O=C(c1ccc[nH]1)N(Cc1ccc(C(F)(F)F)cc1)c1ccccc1 [Compound 22, N-Phenyl-N-(4-(trifluoromethyl)benzyl)-1H-pyrrole-2-carboxamide]",> 30 µM

# Test system: not listed separately
# Experiment: in vitro
# Conditions: monkey, CC50
row,SMILES,CC50
1,"O=C(c1ccc[nH]1)N(Cc1ccc(C(F)(F)F)cc1)c1ccccc1 [Compound 22, N-Phenyl-N-(4-(trifluoromethyl)benzyl)-1H-pyrrole-2-carboxamide]",> 100 µM

# Same assay, conditions: monkey, CC50 BGM Average
row,SMILES,CC50
1,"O=C(c1ccc[nH]1)N(Cc1ccc(C(F)(F)F)cc1)c1ccccc1 [Compound 22, N-Phenyl-N-(4-(trifluoromethyl)benzyl)-1H-pyrrole-2-carboxamide]",> 100 µM

# Same assay, conditions: monkey, Exp 1 CC50 BGM
row,SMILES,CC50
1,"O=C(c1ccc[nH]1)N(Cc1ccc(C(F)(F)F)cc1)c1ccccc1 [Compound 22, N-Phenyl-N-(4-(trifluoromethyl)benzyl)-1H-pyrrole-2-carboxamide]",> 100 µM

# Same assay, conditions: monkey, Exp 2 CC50 BGM
row,SMILES,CC50
1,"O=C(c1ccc[nH]1)N(Cc1ccc(C(F)(F)F)cc1)c1ccccc1 [Compound 22, N-Phenyl-N-(4-(trifluoromethyl)benzyl)-1H-pyrrole-2-carboxamide]",> 100 µM

# Test system: CV-B3
# Experiment: microbe, parasite or virus in culture
# Type: cell-based, coxsackievirus B3
# Conditions: Enterovirus B, CVB3, BGM, read-out: EC50 BGM Average
row,SMILES,EC50
1,"O=C(c1ccc[nH]1)N(Cc1ccc(C(F)(F)F)cc1)c1ccccc1 [Compound 22, N-Phenyl-N-(4-(trifluoromethyl)benzyl)-1H-pyrrole-2-carboxamide]",2.28 µM

# Same assay, conditions: Enterovirus B, CVB3, BGM, read-out: Exp 1 EC50 BGM
row,SMILES,EC50
1,"O=C(c1ccc[nH]1)N(Cc1ccc(C(F)(F)F)cc1)c1ccccc1 [Compound 22, N-Phenyl-N-(4-(trifluoromethyl)benzyl)-1H-pyrrole-2-carboxamide]",2.55 µM

# Same assay, conditions: Enterovirus B, CVB3, BGM, read-out: Exp 2 EC50 BGM
row,SMILES,EC50
1,"O=C(c1ccc[nH]1)N(Cc1ccc(C(F)(F)F)cc1)c1ccccc1 [Compound 22, N-Phenyl-N-(4-(trifluoromethyl)benzyl)-1H-pyrrole-2-carboxamide]",2.01 µM

# Test system: EV-D68
# Experiment: microbe, parasite or virus in culture
# Type: cell-based, enterovirus D68
# Conditions: Enterovirus D, EVD68, HeLa R19, read-out: EC50 EV-D68
row,SMILES,EC50
1,"O=C(c1ccc[nH]1)N(Cc1ccc(C(F)(F)F)cc1)c1ccccc1 [Compound 22, N-Phenyl-N-(4-(trifluoromethyl)benzyl)-1H-pyrrole-2-carboxamide]",12.4 ± 0.81 µM

# Same assay, conditions: Enterovirus D, EVD68, HeLa R19, read-out: EC50 Exp1
row,SMILES,EC50
1,"O=C(c1ccc[nH]1)N(Cc1ccc(C(F)(F)F)cc1)c1ccccc1 [Compound 22, N-Phenyl-N-(4-(trifluoromethyl)benzyl)-1H-pyrrole-2-carboxamide]",11.6 µM

# Same assay, conditions: Enterovirus D, EVD68, HeLa R19, read-out: EC50 Exp2
row,SMILES,EC50
1,"O=C(c1ccc[nH]1)N(Cc1ccc(C(F)(F)F)cc1)c1ccccc1 [Compound 22, N-Phenyl-N-(4-(trifluoromethyl)benzyl)-1H-pyrrole-2-carboxamide]",13.2 µM

# Test system: EV-A71
# Experiment: microbe, parasite or virus in culture
# Type: cell-based, enterovirus A71
# Conditions: Enterovirus A, EVA71, HeLa R19, read-out: EC50 EV-A71
row,SMILES,EC50
1,"O=C(c1ccc[nH]1)N(Cc1ccc(C(F)(F)F)cc1)c1ccccc1 [Compound 22, N-Phenyl-N-(4-(trifluoromethyl)benzyl)-1H-pyrrole-2-carboxamide]",1.27 ± 0.49 µM

# Same assay, conditions: Enterovirus A, EVA71, HeLa R19, read-out: EC50 Exp1
row,SMILES,EC50
1,"O=C(c1ccc[nH]1)N(Cc1ccc(C(F)(F)F)cc1)c1ccccc1 [Compound 22, N-Phenyl-N-(4-(trifluoromethyl)benzyl)-1H-pyrrole-2-carboxamide]",0.78 µM

# Same assay, conditions: Enterovirus A, EVA71, HeLa R19, read-out: EC50 Exp2
row,SMILES,EC50
1,"O=C(c1ccc[nH]1)N(Cc1ccc(C(F)(F)F)cc1)c1ccccc1 [Compound 22, N-Phenyl-N-(4-(trifluoromethyl)benzyl)-1H-pyrrole-2-carboxamide]",1.76 µM

# Test system: HRV-B14
# Experiment: microbe, parasite or virus in culture
# Type: cell-based, human rhinovirus
# Conditions: Human rhinovirus sp., HRVB14, HeLa R19, read-out: EC50 HRV-B14
row,SMILES,EC50
1,"O=C(c1ccc[nH]1)N(Cc1ccc(C(F)(F)F)cc1)c1ccccc1 [Compound 22, N-Phenyl-N-(4-(trifluoromethyl)benzyl)-1H-pyrrole-2-carboxamide]",> 30 µM

# Test system: not listed separately
# Experiment: in vitro
# Conditions: human, CC50
row,SMILES,CC50
1,"COc1ccc(N(Cc2ccco2)C(=O)c2ccc(F)cc2)cc1 [Compound 15, 4-Fluoro-N-(furan-2-ylmethyl)-N-(4-methoxyphenyl)benzamide]",> 30 µM

# Same assay, conditions: human, CC50 Average
row,SMILES,CC50
1,"COc1ccc(N(Cc2ccco2)C(=O)c2ccc(F)cc2)cc1 [Compound 15, 4-Fluoro-N-(furan-2-ylmethyl)-N-(4-methoxyphenyl)benzamide]",> 30 µM
2,"O=C(c1ccc[nH]1)N(Cc1ccc(C(F)(F)F)cc1)c1ccccc1 [Compound 22, N-Phenyl-N-(4-(trifluoromethyl)benzyl)-1H-pyrrole-2-carboxamide]",> 30 µM

# Same assay, conditions: human, CC50 HelaR19 Average
row,SMILES,CC50
1,"O=C(c1ccc[nH]1)N(Cc1ccc(C(F)(F)F)cc1)c1ccccc1 [Compound 22, N-Phenyl-N-(4-(trifluoromethyl)benzyl)-1H-pyrrole-2-carboxamide]",> 100 µM

# Same assay, conditions: human, Exp 1 CC50
row,SMILES,CC50
1,"COc1ccc(N(Cc2ccco2)C(=O)c2ccc(F)cc2)cc1 [Compound 15, 4-Fluoro-N-(furan-2-ylmethyl)-N-(4-methoxyphenyl)benzamide]",> 30 µM
2,"O=C(c1ccc[nH]1)N(Cc1ccc(C(F)(F)F)cc1)c1ccccc1 [Compound 22, N-Phenyl-N-(4-(trifluoromethyl)benzyl)-1H-pyrrole-2-carboxamide]",> 30 µM

# Same assay, conditions: human, Exp 1 CC50 HelaR19
row,SMILES,CC50
1,"O=C(c1ccc[nH]1)N(Cc1ccc(C(F)(F)F)cc1)c1ccccc1 [Compound 22, N-Phenyl-N-(4-(trifluoromethyl)benzyl)-1H-pyrrole-2-carboxamide]",> 100 µM

# Same assay, conditions: human, Exp2 CC50
row,SMILES,CC50
1,"COc1ccc(N(Cc2ccco2)C(=O)c2ccc(F)cc2)cc1 [Compound 15, 4-Fluoro-N-(furan-2-ylmethyl)-N-(4-methoxyphenyl)benzamide]",> 30 µM
2,"O=C(c1ccc[nH]1)N(Cc1ccc(C(F)(F)F)cc1)c1ccccc1 [Compound 22, N-Phenyl-N-(4-(trifluoromethyl)benzyl)-1H-pyrrole-2-carboxamide]",> 30 µM

# Same assay, conditions: human, Exp 2 CC50 HelaR19
row,SMILES,CC50
1,"O=C(c1ccc[nH]1)N(Cc1ccc(C(F)(F)F)cc1)c1ccccc1 [Compound 22, N-Phenyl-N-(4-(trifluoromethyl)benzyl)-1H-pyrrole-2-carboxamide]",> 100 µM

# Test system: HeLa R19 cells
# Experiment: not given
# Conditions: not given
row,SMILES,cytotoxicity (in words)
1,"O=C(c1ccc[nH]1)N(Cc1ccc(C(F)(F)F)cc1)c1ccccc1 [Compound 22, N-Phenyl-N-(4-(trifluoromethyl)benzyl)-1H-pyrrole-2-carboxamide]",did not show any cytotoxicity

# Test system: not listed separately
# Experiment: in vitro
# Conditions: human, CC50
# Remark: another data set of the same source
row,SMILES,CC50
1,"O=C(c1ccc[nH]1)N(Cc1ccc(C(F)(F)F)cc1)c1ccccc1 [Compound 22, N-Phenyl-N-(4-(trifluoromethyl)benzyl)-1H-pyrrole-2-carboxamide]",> 100 µM

# Same assay, conditions: human, CC50 Hap1 Average
row,SMILES,CC50
1,"O=C(c1ccc[nH]1)N(Cc1ccc(C(F)(F)F)cc1)c1ccccc1 [Compound 22, N-Phenyl-N-(4-(trifluoromethyl)benzyl)-1H-pyrrole-2-carboxamide]",> 100 µM

# Same assay, conditions: human, Exp 1 CC50 Hap1
row,SMILES,CC50
1,"O=C(c1ccc[nH]1)N(Cc1ccc(C(F)(F)F)cc1)c1ccccc1 [Compound 22, N-Phenyl-N-(4-(trifluoromethyl)benzyl)-1H-pyrrole-2-carboxamide]",> 100 µM

# Same assay, conditions: human, Exp 2 CC50 Hap1
row,SMILES,CC50
1,"O=C(c1ccc[nH]1)N(Cc1ccc(C(F)(F)F)cc1)c1ccccc1 [Compound 22, N-Phenyl-N-(4-(trifluoromethyl)benzyl)-1H-pyrrole-2-carboxamide]",> 100 µM
